Measured values from patent US5739161A, “Agent for treating hepto.biliary diseases” (priority 1994, dated 1998).
Where two headings read alike, the source gives them in different places. One block for each compound: values may come before it.

Experiments:
hepatocyte = details: cited from earlier work
[1] = observation of diarrhea and loose feces in the rats; format: in vivo, rat (Crj: Wister); details: rat, oral
Experimental: (§1) Crj: Wister rats (7 weeks old, weight: 220-250 g) were kept without food for 16 hours, and hydrochloric acid-D-galactosamine 800 mg/kg was administrated by intra peritonealy injection in order to elicit acute hepatopathy model. After 24 hours from the administration of galactosamine, blood sample was collected under ether anesthesia and a serum was separated. The serum was assayed for serum biochemical profile of liver function test by an automatic analyzer (AU 550 available Orympus Kogaku Kogyo K.K.).
(§2) Test compound was dissolved in 0.5% ethanol physiological saline, which was orally administered by force using an oral sonde for rat at 30 minutes before, 2 hours and 6 hours after the administration of the galactosamine.
The generation of a diarrhea and a loose feces observed up to 2 hours after the 3rd administration of the test compounds, and the number of the rats having diarrhea or loose feces were recorded.
(§3) This test was carried out according the same manner as in the Example 1 providing the following compounds were used as test compounds.
(§4) This test was carried out according the same manner as in the Example 1 using the following compounds as test compounds.
(§5) This test was carried out according the same manner as in the Example 1 excepting the following compounds were used as test compounds.

[2] = tested on: acute hepatopathy model (galactosamine-elicited); assay: D-galactosamine acute hepatopathy model in rats, serum biochemical liver function test (inhibiting ratio); format: in vivo, rat (Crj: Wister); details: rat, oral; for inhibition in vivo at 0.03 mg/kg / inhibition in vivo at 0.1 mg/kg / inhibition in vivo at 1 mg/kg / inhibition in vivo at 0.01 mg/kg: 24 h; for inhibition in vivo at 0.01 mg/kg: 10 μg/kg × 3
Experimental: as §1, §2
The following four items were tested for the serum biochemical liver function test: glutamic oxaloacetic transaminase (GOT), glutamic pyruvic transaminase (GPT) lactate dehydrogenase (LDH)
The inhibiting Ratio (%) was obtained by the results of the serum biochemical profile of liver functional test how much the increases in the above four items by the administration of galactosamine was inhibited by the test compounds. The Inhibiting, Ratio (%) was calculated by the following equation: [formula] (All of the data in the equation are represented by average) […]
as §3, §4, §5

[3] = 30 μg/kg × 3, up to 2 hours after 3rd administration
[4] = 30 μg/kg × 3, read-out: inhibiting ratio GOT
[5] = 30 μg/kg × 3, read-out: inhibiting ratio GPT
[6] = 30 μg/kg × 3, read-out: inhibiting ratio T-Bil
[7] = 100 μg/kg × 3, up to 2 hours after 3rd administration
[8] = 100 μg/kg × 3, read-out: inhibiting ratio GOT
[9] = 100 μg/kg × 3, read-out: inhibiting ratio GPT
[10] = 100 μg/kg × 3, read-out: inhibiting ratio T-Bil
[11] = 1000 μg/kg × 3, up to 2 hours after 3rd administration
[12] = 1000 μg/kg × 3, read-out: inhibiting ratio GOT
[13] = 1000 μg/kg × 3, read-out: inhibiting ratio GPT
[14] = 1000 μg/kg × 3, read-out: inhibiting ratio T-Bil
[15] = 10 μg/kg × 3, up to 2 hours after 3rd administration
[16] = read-out: inhibiting ratio T-Bil

Structure (SMILES): CCCCC[C@@](C)(O)/C=C/[C@H]1[C@H](O)CC(=O)[C@@H]1C/C=C\CCCC(=O)O [15-methyl-PGE2]
hepatocyte protecting activity (hepatocyte): have a hepatocyte protecting activity

Structure (SMILES): CCCCC(C)(C)[C@H](O)/C=C/[C@H]1[C@H](O)CC(=O)[C@@H]1C/C=C\CCCC(=O)O [16,16-dimethyl-PGE2]
hepatocyte protecting activity (hepatocyte): have a hepatocyte protecting activity

Structure (SMILES): CCC[C@@H](C)C(F)(F)C(=O)CC[C@H]1[C@H](O)CC(=O)[C@@H]1CCCCCCC(=O)O [Test Compound 4, 7-[(1R,2R,3R)-2-{4,4-difluoro-5(R)-methyl-3-oxooctyl}-3-hydroxy-5-oxocyclopentyl]heptanoic acid]
diarrhea / loose feces (number of rats having diarrhea or loose feces) [1, 7]: no diarrhea in any cases
inhibition in vivo at 0.1 mg/kg [2, 8]: 54%
inhibition in vivo at 0.1 mg/kg [2, 9]: 57%
inhibition in vivo at 0.1 mg/kg [2, 10]: 89%
inhibiting ratio LDH ([2]; 100 μg/kg × 3): 51%

Structure (SMILES): CC(C)CCC(F)(F)C(=O)CC[C@H]1CCC(=O)[C@@H]1CCCCCCC(=O)O [Test Compound 7, 7-[(1R,2R)-2-(4,4-difluoro-7-methyl-3-oxooctyl)-5-oxocyclopentyl]heptanoicacid]
diarrhea / loose feces (number of rats having diarrhea or loose feces) [1, 11]: no diarrhea
inhibition in vivo at 1 mg/kg [2, 12]: 52%
inhibition in vivo at 1 mg/kg [2, 13]: 63%
inhibition in vivo at 1 mg/kg [2, 14]: 86%
inhibiting ratio LDH ([2]; 1000 μg/kg × 3): 62%

Structure (SMILES): CCC[C@H](C)C(F)(F)C(=O)CC[C@H]1[C@H](O)CC(=O)[C@@H]1CCCCCCC(=O)O [Test Compound 8]
diarrhea / loose feces (number of rats having diarrhea or loose feces) [1, 11]: no diarrhea
inhibition in vivo at 1 mg/kg [2, 12]: 59%
inhibition in vivo at 1 mg/kg [2, 13]: 56%
inhibition in vivo at 1 mg/kg [2, 14]: 92%
inhibiting ratio LDH ([2]; 1000 μg/kg × 3): 63%

Structure (SMILES): CCC[C@@H](C)C(F)(F)C(=O)CC[C@H]1CCC(=O)[C@@H]1CCCCCCC(=O)O [Test Compound 10, 7-[(1R,2R)-2-{4,4-difluoro-5(R)-methyl-3-oxooctyl}-5-oxocyclopentyl]heptanoic acid]
diarrhea / loose feces (number of rats having diarrhea or loose feces) [1, 7]: non
inhibition in vivo at 0.1 mg/kg [2, 8]: 36%
inhibition in vivo at 0.1 mg/kg [2, 9]: 39%
inhibition in vivo at 0.1 mg/kg [2, 10]: 59%

Structure (SMILES): CCC(CC)CC(F)(F)C(=O)CC[C@H]1[C@H](O)CC(=O)[C@@H]1CCCCCCC(=O)O [Test Compound 13, 7-[(1R,2R,3R)-2-(4,4-difluoro-6-ethyl-3-oxooctyl)-3-hydroxy-5-oxocyclopentyl]heptanoic acid]
diarrhea / loose feces (number of rats having diarrhea or loose feces) [1, 15]: non
inhibition in vivo at 0.01 mg/kg ([2]; read-out: inhibiting ratio GOT): 47%
inhibition in vivo at 0.01 mg/kg ([2]; read-out: inhibiting ratio GPT): 42%
inhibition in vivo at 0.01 mg/kg [2, 16]: 75%

Continued, in another order:

diarrhea / loose feces (number of rats having diarrhea or loose feces) [1, 3]: 3/10
Structure (SMILES): CCCCC(F)(F)C(=O)CC[C@H]1[C@H](O)CC(=O)[C@@H]1C/C=C\CCCC(=O)O [Test Compound 1, 13,14-dihydro-15-keto-16,16-difluoro-PGE2, reference compound]
inhibition in vivo at 0.03 mg/kg [2, 4]: 28%
inhibition in vivo at 0.03 mg/kg [2, 5]: 42%
inhibition in vivo at 0.03 mg/kg [2, 6]: 82%
inhibiting ratio LDH ([2]; 30 μg/kg × 3): 22%

diarrhea / loose feces (number of rats having diarrhea or loose feces) [1, 3]: no diarrhea was observed in every rat
Structure (SMILES): CC(C)CCC(F)(F)C(=O)CC[C@H]1[C@H](O)CC(=O)[C@@H]1C/C=C\CCCC(=O)O [Test Compound 2, Z-7-[(1R,2R,3R)-2-(4,4-difluoro-7-methyl-3-oxooctyl)-3-hydroxy-5-oxocyclopentyl]hept-5-enoic acid]
inhibition in vivo at 0.03 mg/kg [2, 4]: 29%
inhibition in vivo at 0.03 mg/kg [2, 5]: 36%
inhibition in vivo at 0.03 mg/kg [2, 6]: 51%
inhibiting ratio LDH ([2]; 30 μg/kg × 3): 32%

diarrhea / loose feces (number of rats having diarrhea or loose feces) [1, 7]: 1/6
loose feces (number of rats) [1, 7]: 2/6
Structure (SMILES): CCCCC(F)(F)C(=O)CC[C@H]1[C@H](O)CC(=O)[C@@H]1CCCCCCC(=O)O [Test Compound 3, 13,14-dihydro-15-keto-16,16-difluoro-PGE1, reference compound]
inhibition in vivo at 0.1 mg/kg [2, 8]: 63%
inhibition in vivo at 0.1 mg/kg [2, 9]: 76%
inhibition in vivo at 0.1 mg/kg [2, 10]: 80%
inhibiting ratio LDH ([2]; 100 μg/kg × 3): 61%

diarrhea / loose feces (number of rats having diarrhea or loose feces) [1, 7]: no diarrhea in any cases
Structure (SMILES): CC(C)CCC(F)(F)C(=O)CC[C@H]1[C@H](O)CC(=O)[C@@H]1CCCCCCC(=O)O [Test Compound 5, 7-[(1R,2R,3R)-2-(4,4-difluoro-7-methyl-3-oxooctyl)-3-hydroxy-5-oxocyclopentyl]heptanoic acid]
inhibition in vivo at 0.1 mg/kg [2, 8]: 51%
inhibition in vivo at 0.1 mg/kg [2, 9]: 66%
inhibition in vivo at 0.1 mg/kg [2, 10]: 72%
inhibiting ratio LDH ([2]; 100 μg/kg × 3): 59%

diarrhea / loose feces (number of rats having diarrhea or loose feces) [1, 11]: no diarrhea
Structure (SMILES): CC(C)C[C@@H](C)C(F)(F)C(=O)CC[C@H]1[C@H](O)CC(=O)[C@@H]1CCCCCCC(=O)O [Test Compound 6, 7-[(1R,2R,3R)-2-{4,4-difluoro-5(R),7-dimethyl-3-oxooctyl}-3-hydroxy-5-oxocyclopentyl]heptanoic acid]
inhibition in vivo at 1 mg/kg [2, 12]: 60%
inhibition in vivo at 1 mg/kg [2, 13]: 71%
inhibition in vivo at 1 mg/kg [2, 14]: 88%
inhibiting ratio LDH ([2]; 1000 μg/kg × 3): 63%

diarrhea / loose feces (number of rats having diarrhea or loose feces) [1, 7]: non
diarrhea / loose feces (number of rats having diarrhea or loose feces) [1, 11]: non
Structure (SMILES): CC[C@H](C)CC(F)(F)C(=O)CC[C@H]1[C@H](O)CC(=O)[C@@H]1CCCCCCC(=O)O [Test Compound 9, 7-[(1R,2R,3R)-2-{4,4-difluoro-6(S)-methyl-3-oxooctyl}-3-hydroxy-5-oxocyclopentyl]heptanoic acid]
inhibition in vivo at 0.1 mg/kg [2, 8]: 44%
inhibition in vivo at 0.1 mg/kg [2, 9]: 54%
inhibition in vivo at 0.1 mg/kg [2, 10]: 80%
inhibition in vivo at 1 mg/kg [2, 12]: 84%
inhibition in vivo at 1 mg/kg [2, 13]: 88%
inhibition in vivo at 1 mg/kg [2, 14]: 95%

diarrhea / loose feces (number of rats having diarrhea or loose feces) [1, 15]: non
Structure (SMILES): CC[C@@H](C)CC(F)(F)C(=O)CC[C@H]1[C@H](O)CC(=O)[C@@H]1CCCCCCC(=O)O [Test Compound 11, 7-[(1R,2R,3R)-2-{4,4-difluoro-6(R)-methyl-3-oxooctyl}-3-hydroxy-5-oxocyclopentyl]heptanoic acid]
inhibition in vivo at 0.01 mg/kg ([2]; read-out: inhibiting ratio GOT): 45%
inhibition in vivo at 0.01 mg/kg ([2]; read-out: inhibiting ratio GPT): 34%
inhibition in vivo at 0.01 mg/kg [2, 16]: 56%

diarrhea / loose feces (number of rats having diarrhea or loose feces) [1, 7]: non
Structure (SMILES): CC(C)CC(F)(F)C(=O)CC[C@H]1[C@H](O)CC(=O)[C@@H]1CCCCCCC(=O)O [Test Compound 12, 7-[(1R,2R,3R)-2-(4,4-difluoro-6-methyl-3-oxoheptyl)-3-hydroxy-5-oxocyclopentyl]heptanoic acid]
inhibition in vivo at 0.1 mg/kg [2, 8]: 38%
inhibition in vivo at 0.1 mg/kg [2, 9]: 40%
inhibition in vivo at 0.1 mg/kg [2, 10]: 69%
